In brackets after ≈: the same amount, converted by molar mass. Counter-ions that a name gives are not always drawn.

In one test the test system is Pseudomonas. To be noted: background statement; cited from earlier work.
The subject of test [1] is gram-positive and gram-negative bacteria. The following applies: background statement; cited from earlier work.
Test [2] has as its system Pseudomonas aeruginosa 104. The test is described as follows: Minimal inhibitory concentration, agar dilution method. It is filed as cell-based. The source says:
(§1) When determined according to the agar dilution method, the penicillins (I) afford the minimal inhibitory concentrations against test microorganisms as shown in Table 2.
A general note: Agar dilution tests growth on a series of plates holding different concentrations.

In the next test the test system is Escherichia coli NIHJ. The description is as above. It is filed as cell-based.
Text: as §1

Test [3] relates to Klebsiella pneumoniae PCI602. Described as above. The test is classed as cell-based.
Text: as §1

Test [4] has as its system Staphylococcus aureus 209P. The description is as above. It is filed as cell-based.
Text: as §1

The subject of the next test is Proteus miravilis GN2425. The description is as above. It is filed as cell-based.
Another test concerns Proteus vulgaris HV19. The test is described as above. It is filed as cell-based.

Consider “6-(α-amino-isothiazolylacetamido)penicillanic acid”, for which the “antimicrobial activity against Pseudomonas” value (shortened to “antimicrobial activity”) in the test on Pseudomonas was “do not exert any appreciable antimicrobial activity against Pseudomonas”. Moreover, the “inhibition of the growth of gram-positive and gram-negative bacteria” value (“inhibition” for short) in test [1] was “inhibit the growth of various gram-positive and gram-negative bacteria”.

Take “6(α-amino-thienylacetamido)penicillanic acid”: the “antimicrobial activity” value in the test on Pseudomonas was “do not exert any appreciable antimicrobial activity against Pseudomonas”. The “inhibition” value in test [1] is “inhibit the growth of various gram-positive and gram-negative bacteria”.

As a reminder, the MIC is the lowest concentration that inhibits growth of the organism. Low readings indicate a more susceptible organism, high ones a less susceptible organism. `CC1(C)S[C@@H]2C(NC(=O)C(N)c3ccccc3)C(=O)N2[C@H]1C(=O)O` (stereo partly drawn) [Ampicillin, 6-(α-amino-phenylacetamido)penicillanic acid]: the minimal inhibitory concentration (MIC) in test [2] was > 500 µg/mL. The “antimicrobial activity” value in the test with Pseudomonas is given as “do not exert any appreciable antimicrobial activity against Pseudomonas”. Moreover, the “inhibition” value in test [1] was “inhibit the growth of various gram-positive and gram-negative bacteria”.

For the compound `CC1(C)S[C@@H]2[C@H](NC(=O)[C@H](N)C3=CCC=CC3)C(=O)N2[C@H]1C(=O)O` [Epicillin], the “antimicrobial activity” value in the test with Pseudomonas was “do not exert any appreciable antimicrobial activity against Pseudomonas”. Further, the “inhibition” value in test [1] is “inhibit the growth of various gram-positive and gram-negative bacteria”.

As to `CC1(C)S[C@@H]2[C@H](NC(=O)C3(N)CCCCC3)C(=O)N2[C@H]1C(=O)O` [Cyclacillin, 6-(1-amino-cyclohexanecarboxamide)penicillanic acid], in the test with Pseudomonas, the “antimicrobial activity” value is reported as “do not exert any appreciable antimicrobial activity against Pseudomonas”. For the same compound, the “inhibition” value in test [1] is “inhibit the growth of various gram-positive and gram-negative bacteria”.

Regarding `CC1(C)S[C@@H]2C(NC(=O)C(N)c3ccc(O)cc3)C(=O)N2[C@H]1C(=O)O` (stereo partly drawn) [Amoxycillin, 6-(α-amino-p-hydroxyphenylacetamido)penicillanic acid], the “antimicrobial activity” value in the test on Pseudomonas is given as “do not exert any appreciable antimicrobial activity against Pseudomonas”. For the same compound, the “inhibition” value in test [1] was “inhibit the growth of various gram-positive and gram-negative bacteria”.

As to `Cc1ccc(C(NC(=O)c2cnc3cccnc3c2O)C(=O)N[C@@H]2C(=O)N3[C@@H]2SC(C)(C)[C@@H]3C(=O)O)cc1` (stereo partly shown) [Example 13], the MIC was 0.78 µg/mL (≈ 1.46 µM) against Escherichia coli NIHJ; 6.25 µg/mL (≈ 11.7 µM) in test [3]; 1.56 µg/mL (≈ 2.91 µM) in test [2]; 1.56 µg/mL (≈ 2.91 µM) in test [4]; 1.56 µg/mL (≈ 2.91 µM) with Proteus miravilis GN2425; 0.05 µg/mL (≈ 0.0934 µM) against Proteus vulgaris HV19.

As for `COc1ccc(C(NC(=O)c2cnc3ccncc3c2O)C(=O)NC2C(=O)N3C2SC(C)(C)C3C(=O)O)cc1` (stereo not shown) [Example 41], the MIC in the test on Escherichia coli NIHJ worked out at 3.13 µg/mL (≈ 5.67 µM); in test [3], 12.5 µg/mL (≈ 22.7 µM); in test [2], 3.13 µg/mL (≈ 5.67 µM); in test [4], 1.56 µg/mL (≈ 2.83 µM); against Proteus miravilis GN2425, 12.5 µg/mL (≈ 22.7 µM); in the test on Proteus vulgaris HV19 it was 0.39 µg/mL (≈ 0.707 µM).

With `COc1ccc2c(O)c(C(=O)NC(C(=O)N[C@@H]3C(=O)N4[C@@H]3SC(C)(C)[C@@H]4C(=O)O)c3cccc(N)c3)cnc2c1` (stereo partly shown) [Example 20], the MIC was 3.13 µg/mL (≈ 5.53 µM) against Escherichia coli NIHJ; 6.25 µg/mL (≈ 11.1 µM) in test [3]; 3.13 µg/mL (≈ 5.53 µM) in test [2]; 0.78 µg/mL (≈ 1.38 µM) in test [4]; 3.13 µg/mL (≈ 5.53 µM) in the test with Proteus miravilis GN2425; 0.1 µg/mL (≈ 0.177 µM) against Proteus vulgaris HV19.

Consider `CCn1ncc2c(O)c(C(=O)NC(C(=O)NC3C(=O)N4C3SC(C)(C)C4C(=O)O)c3ccc(N)cc3)cnc21` (stereo not shown) [Example 59], for which the MIC was found to be 3.13 µg/mL (≈ 5.65 µM) in the test on Escherichia coli NIHJ; 12.5 µg/mL (≈ 22.6 µM) in test [3]; 1.56 µg/mL (≈ 2.82 µM) in test [2]; 0.78 µg/mL (≈ 1.41 µM) in test [4]; 6.25 µg/mL (≈ 11.3 µM) in the test with Proteus miravilis GN2425; 0.1 µg/mL (≈ 0.181 µM) with Proteus vulgaris HV19.

Turning to `CC1(C)SC2C(NC(=O)C(NC(=O)c3cnc4nc(N5CCCC5)ncc4c3O)c3cccc(N)c3)C(=O)N2C1C(=O)O` (stereo not shown) [Example 53], the MIC against Escherichia coli NIHJ came to 3.13 µg/mL (≈ 5.16 µM); in test [3], 6.25 µg/mL (≈ 10.3 µM); in test [2], 3.13 µg/mL (≈ 5.16 µM); in test [4], 1.56 µg/mL (≈ 2.57 µM); against Proteus miravilis GN2425 it was 3.13 µg/mL (≈ 5.16 µM); with Proteus vulgaris HV19, 0.025 µg/mL (≈ 0.0412 µM).

In the case of `CN(C)c1ccc([C@@H](NC(=O)c2cnc3cccnc3c2O)C(=O)N[C@@H]2C(=O)N3[C@@H]2SC(C)(C)[C@@H]3C(=O)O)cc1` [Example 5, D-α-(4-hydroxy-1,5-naphthyridine-3-carboxamido)-p-dimethylaminobenzylpenicillin sodium salt], the minimal inhibitory concentration (MIC) in the test on Escherichia coli NIHJ came out at 3.13 µg/mL; in test [3], 6.25 µg/mL; in test [2], 1.56 µg/mL; in test [4], 1.56 µg/mL; against Proteus miravilis GN2425, 6.25 µg/mL; against Proteus vulgaris HV19, 0.1 µg/mL.

With `CC1(C)S[C@@H]2[C@H](NC(=O)C(NC(=O)c3cnc4cc(Cl)ccc4c3O)c3ccc(N)cc3)C(=O)N2[C@H]1C(=O)O` (stereo partly shown) [Example 17], the minimal inhibitory concentration (MIC) against Escherichia coli NIHJ came out at 3.13 µg/mL (≈ 5.49 µM); in test [3] it was 6.25 µg/mL (≈ 11 µM); in test [2], 3.13 µg/mL (≈ 5.49 µM); in test [4], 0.78 µg/mL (≈ 1.37 µM); in the test with Proteus miravilis GN2425 it was 3.13 µg/mL (≈ 5.49 µM); against Proteus vulgaris HV19, 0.2 µg/mL (≈ 0.351 µM).

Turning to `CCNc1ccc2ncc(C(=O)NC(C(=O)NC3C(=O)N4C3SC(C)(C)C4C(=O)O)c3cccc(N)c3)c(O)c2n1` (stereo not shown) [Example 55], the minimum inhibitory concentration (MIC) with Escherichia coli NIHJ was determined as 0.78 µg/mL (≈ 1.35 µM); in test [3], 6.25 µg/mL (≈ 10.8 µM); in test [2] it was 1.56 µg/mL (≈ 2.69 µM); in test [4], 1.56 µg/mL (≈ 2.69 µM); against Proteus miravilis GN2425, 0.78 µg/mL (≈ 1.35 µM); against Proteus vulgaris HV19, 0.025 µg/mL (≈ 0.0431 µM).

`CC1(C)SC2C(NC(=O)C(NC(=O)c3cnc4cccnc4c3O)c3cccc(F)c3)C(=O)N2C1C(=O)O` (stereo not shown) [Example 47]: the minimal inhibitory concentration (MIC) against Escherichia coli NIHJ turned out to be 1.56 µg/mL (≈ 2.89 µM); in test [3], 12.5 µg/mL (≈ 23.2 µM); in test [2], 1.56 µg/mL (≈ 2.89 µM); in test [4], 1.56 µg/mL (≈ 2.89 µM); in the test with Proteus miravilis GN2425, 1.56 µg/mL (≈ 2.89 µM); with Proteus vulgaris HV19 it was 0.05 µg/mL (≈ 0.0927 µM).

For the compound `Cc1ccc2c(O)c(C(=O)NC(C(=O)N[C@@H]3C(=O)N4[C@@H]3SC(C)(C)[C@@H]4C(=O)O)c3cccc(N)c3)cnc2n1` (stereo partly shown) [Example 18], the MIC against Escherichia coli NIHJ amounted to 1.56 µg/mL (≈ 2.83 µM); in test [3] it was 6.25 µg/mL (≈ 11.4 µM); in test [2], 1.56 µg/mL (≈ 2.83 µM); in test [4] it was 1.56 µg/mL (≈ 2.83 µM); against Proteus miravilis GN2425, 1.56 µg/mL (≈ 2.83 µM); in the test with Proteus vulgaris HV19, 0.025 µg/mL (≈ 0.0454 µM).

Source of the values: patent US3992371A, “Penicillins substituted with heterocyclic and substituted phenyl groups” (Sumitomo Chemical Company, Limited, priority 1973, dated 1976).
